Source: patent publication US10023575B2, “Cyclic ether derivatives of pyrazolo[1,5-a]pyrimidine-3-carboxyamide” (Boehringer Ingelheim International GmbH, priority 2015, dated 2018)
Where two headings read alike, the source gives them in different places.

Experiments:
PDE 2A = PDE 2A (Homo sapiens (Human), UniProt O00408); assay: Phosphodiesterase (PDE) 2A assay with fluorescent substrate (IMAP, fluorescence polarization); assay type: biochemical; details: labeled cAMP 30 nM, read-out: PDE2 IC50
PDE 2A, sequence (O00408 whole entry, species assumed): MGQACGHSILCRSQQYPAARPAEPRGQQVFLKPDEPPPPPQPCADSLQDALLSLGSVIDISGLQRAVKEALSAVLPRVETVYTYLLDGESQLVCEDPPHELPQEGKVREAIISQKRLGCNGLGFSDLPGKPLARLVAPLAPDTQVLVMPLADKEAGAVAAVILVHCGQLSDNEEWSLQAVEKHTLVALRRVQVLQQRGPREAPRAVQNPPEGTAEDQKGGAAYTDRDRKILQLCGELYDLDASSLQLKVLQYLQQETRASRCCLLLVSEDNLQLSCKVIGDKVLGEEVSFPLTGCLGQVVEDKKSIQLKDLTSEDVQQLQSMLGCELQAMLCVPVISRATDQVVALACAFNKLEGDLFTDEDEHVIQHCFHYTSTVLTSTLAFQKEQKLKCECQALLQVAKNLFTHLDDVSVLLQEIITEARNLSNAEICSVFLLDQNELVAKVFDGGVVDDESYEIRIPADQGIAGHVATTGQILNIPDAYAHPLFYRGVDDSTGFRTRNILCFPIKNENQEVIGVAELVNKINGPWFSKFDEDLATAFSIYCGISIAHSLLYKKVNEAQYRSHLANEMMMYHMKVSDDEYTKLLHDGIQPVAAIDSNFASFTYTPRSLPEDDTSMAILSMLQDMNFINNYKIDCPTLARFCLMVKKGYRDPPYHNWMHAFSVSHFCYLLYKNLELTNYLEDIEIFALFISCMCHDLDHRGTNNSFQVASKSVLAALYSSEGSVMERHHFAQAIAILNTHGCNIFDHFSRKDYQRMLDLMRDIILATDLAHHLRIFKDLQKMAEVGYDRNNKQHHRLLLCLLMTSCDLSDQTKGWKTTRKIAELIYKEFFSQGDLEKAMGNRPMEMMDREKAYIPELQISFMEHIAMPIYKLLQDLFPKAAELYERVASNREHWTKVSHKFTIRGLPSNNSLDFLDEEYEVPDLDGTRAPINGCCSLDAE
Procedure: (§1) The PDE reaction cleaves cAMP to AMP. The IMAP system (Molecular Device) using fluorescence polarization (FP) as detection principle was used to measure enzyme activity. A fluorescent labeled cAMP was used as substrate for the reaction, generating a labeled AMP. The fluorescent AMP binds specifically to the large M(III)-based nano-particles which reduces the rotational speed of the substrate and thus increases its polarization.
(§2) The inhibition of PDE 2A or 10 enzyme activity was assessed using IMAP-Phosphodiesterase-cAMP fluorescence labeled substrate (Molecular Devices, Order No. R7506), IMAP TR-FRET screening express (Molecular Devices, Order No. R8160, the TR-FRET component will not be used) and PDE 2A or PDE10 protein expressed upon baculovirus infection in SF9 cells. The cells were incubated after infection for ˜3 days and protein production was confirmed by Western Blot. The cells were collected by centrifugation and the pellet frozen in liquid nitrogen before it was resuspended in PBS containing 1% Triton X-100 and protease inhibitors. After 45 min incubation on ice, the cell debris was removed by centrifugation (13.000 rpm, 30 min).
(§3) All reactions were performed in 384 well plates, Perkin Elmer black optiplates and IMAP reaction buffer with 0.1% Tween20 (kit component)
(§4) Compounds were serial diluted in DMSO. With an intermediate dilution step with reaction buffer DMSO concentration was reduced to achieve 1% DMSO in the assay reaction. Setup of the assay started with 10 μl enzyme (˜10 ng/well, depending on prep. batch), 5 μl compound, reaction was started by addition of 5 μl labeled cAMP (30 nM, final concentration), immediately mixed for 15 seconds on a Eppendorf mixmate (2000 rpm) followed by an incubation at room temperature for 90 minutes in the dark. Reaction is stopped by adding of 60 μl binding buffer for FP/cAMP (kit component).
(§5) Each assay plate contained wells with vehicle controls (1% DMSO) for the measurement of non-inhibited reaction (=100% control) and wells without enzyme as 0% controls.

PDE10 = PDE10 (Homo sapiens (Human), UniProt Q9Y233); assay: Phosphodiesterase (PDE) 10 assay with fluorescent substrate (IMAP, fluorescence polarization); assay type: biochemical; details: labeled cAMP 30 nM
PDE10, sequence (Q9Y233 whole entry): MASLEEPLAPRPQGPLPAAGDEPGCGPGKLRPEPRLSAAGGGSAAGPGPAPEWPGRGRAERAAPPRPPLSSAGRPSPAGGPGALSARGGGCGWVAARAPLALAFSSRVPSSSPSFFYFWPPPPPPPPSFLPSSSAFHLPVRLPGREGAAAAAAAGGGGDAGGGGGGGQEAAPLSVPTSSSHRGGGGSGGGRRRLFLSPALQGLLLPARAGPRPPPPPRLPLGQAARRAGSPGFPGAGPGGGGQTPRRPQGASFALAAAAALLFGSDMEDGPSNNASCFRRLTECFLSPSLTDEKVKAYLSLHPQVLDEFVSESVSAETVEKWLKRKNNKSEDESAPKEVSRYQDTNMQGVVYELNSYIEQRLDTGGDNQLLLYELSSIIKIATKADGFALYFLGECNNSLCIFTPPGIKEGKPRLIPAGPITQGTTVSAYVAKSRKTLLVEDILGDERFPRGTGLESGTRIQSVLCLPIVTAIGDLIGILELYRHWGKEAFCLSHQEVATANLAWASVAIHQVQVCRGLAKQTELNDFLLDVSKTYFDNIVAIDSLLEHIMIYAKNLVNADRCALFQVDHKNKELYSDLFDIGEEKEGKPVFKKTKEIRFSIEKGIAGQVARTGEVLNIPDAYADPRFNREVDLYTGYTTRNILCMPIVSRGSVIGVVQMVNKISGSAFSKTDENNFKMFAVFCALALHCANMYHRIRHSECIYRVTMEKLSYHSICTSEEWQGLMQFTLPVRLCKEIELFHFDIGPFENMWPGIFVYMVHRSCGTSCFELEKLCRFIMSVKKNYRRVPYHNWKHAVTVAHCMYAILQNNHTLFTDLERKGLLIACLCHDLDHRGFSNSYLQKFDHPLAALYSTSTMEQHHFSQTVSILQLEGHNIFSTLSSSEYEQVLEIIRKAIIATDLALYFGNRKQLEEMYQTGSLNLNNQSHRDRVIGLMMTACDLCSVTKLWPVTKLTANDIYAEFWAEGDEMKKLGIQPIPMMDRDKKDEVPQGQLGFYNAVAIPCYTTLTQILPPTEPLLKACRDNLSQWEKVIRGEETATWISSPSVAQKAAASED
Procedure: as §1, §2, §3, §4, §5

[1] = Plasma protein binding with equilibrium dialysis, human plasma; assay type: in vitro ADME; details: equilibrium dialysis 2 hours 37° C.; for PPB HUM % BINDING: human plasma, 1.0 μM; for fraction unbound at 2 h, 1 µM: human, pooled human plasma (with NaEDTA), pH 7.4, human plasma, read-out: PPB HUM % BINDING (converted)
Source text: (§6) Plasma Protein Binding (Determination of Human and Rat Plasma Protein Binding with Equilibrium Dialysis)
(§7) This equilibrium dialysis (ED) technique is used to determine the approximate in vitro fractional binding of test compounds to human and rat plasma proteins.
(§8) Dianorm Teflon dialysis cells (micro 0.2) are used. Each cell consists of a donor and an acceptor chamber, separated by an ultrathin semipermeable membrane with a 5 kDa molecular weight cutoff.
(§9) Stock solutions for each test compound are prepared in DMSO at 1 mM and diluted to a final concentration of 1.0 μM. The subsequent dialysis solutions are prepared in pooled human and rat plasma (with NaEDTA)
(§10) Aliquots of 200 μL dialysis buffer (100 mM potassium phosphate, pH 7.4) are dispensed into the buffer chamber. Aliquots of 200 μL test compound dialysis solution are dispensed into the plasma chambers. Incubation is carried out for 2 hours under rotation at 37° C.
(§11) At the end of the dialysis period, the dialysate is transferred into reaction tubes. The tubes for the buffer fraction contain 0.2 ml Acetonitril/water (80/20). Aliquots of 25 μl of the plasma dialysate are transferred into deep well plates and mixed with 25 μl Acetonitril/water (80/20), 25 μl buffer, 25 μl calibration solution and 25 μl Internal Standard solution. Protein precipitation is done by adding 200 μl Acetonitrile. Aliquots of 50 μl of the buffer dialysate are transferred into deep well plates and mixed with 25 μl blank plasma, 25 μl Internal Standard solution and 200 μl Acetonitril. Samples are measured on HPLC-MS/MS-Systems and evaluated with Analyst-Software.
(§12) Percent bound is calculated with the formula: % bound=(plasma concentration−buffer concentration/plasma concentration)×100 and % free is calculated as difference.

[2] = Metabolic stability in pooled human liver microsomes; assay type: in vitro ADME; details: 1 mg/mL protein, 1 μM compound, 37° C.; for Half-life t½ human: human liver microsomes; for half-life at 1 µM: human, pooled human liver microsomes, pH 7.6, human liver microsomes, read-out: Half-life t½ human
Procedure: The metabolic degradation of the test compound was assayed at 37° C. with pooled liver microsomes from various species. The final incubation volume of 100 μl per time point contains TRIS buffer pH 7.6 at room temperature (0.1 M), magnesium chloride (5 mM), microsomal protein (1 mg/mL for human and dog, 0.5 mg/mL for other species) and the test compound at a final concentration of 1 μM. Following a short preincubation period at 37° C., the reactions were initiated by addition of betanicotinamide adenine dinucleotide phosphate, reduced form (NADPH, 1 mM), and terminated by transferring an aliquot into solvent after different time points. […] The half-life was determined by the slope of the semi-logarithmic plot of the concentration-time profile.

[3] = Plasma protein binding with equilibrium dialysis, rat plasma; assay type: in vitro ADME; details: rat, pooled rat plasma (with NaEDTA), pH 7.4, rat plasma, equilibrium dialysis 2 hours 37° C., read-out: PPB RAT % BINDING (converted)
Source text: as §6, §7, §8, §9, §10, §11, §12

[4] = In-vivo effect: animal experiments and sample analysis (plasma, brain, CSF concentration); details: rat, 0.5 h between administration and CSF sampling; for concentration at 0.5 h: doses of 10.0 or 5 μmol/kg
Procedure: In-Vivo Effect: Animal Experiments and Sample Analysis (CSF):
CSF samples were carefully collected by puncture of the cisterna magna under anesthaesia. Immediately after CSF sampling, blood was taken by heart puncture and brains were dissected out. Blood was collected in EDTA-coated microvettes and plasma was prepared by centrifugation. Concentration of the test compounds in plasma, CSF or brain homogenate was determined using HPLC-MS-MS.

[5] = brain homogenate, read-out: conc brain
[6] = brain, read-out: c(brain)/c(plasma)

| Structure (SMILES) | IC50 (PDE 2A) | IC50 (PDE10) | PPB HUM % BINDING [1] | Half-life t½ human [2] | fraction unbound at 2 h, 1 µM [1] | half-life at 1 µM [2] | fraction unbound at 2 h, 1 µM [3] | concentration at 0.5 h [4, 5] | Kp at 0.5 h [4, 6] | concentration at 0.5 h ([4]; plasma, read-out: conc plasma) | concentration at 0.5 h ([4]; read-out: conc CSF) | Kp at 0.5 h ([4]; read-out: c(CSF)/c(plasma)) |
| --- | --- | --- | --- | --- | --- | --- | --- | --- | --- | --- | --- | --- |
| O=C(NC1(c2ccc(C(F)(F)F)cc2F)COCC1O)c1cnn2cc(C3CC3)cnc12 (single isomer, unassigned) [Example 68] | 24 nM | > 10000 nM | 84.4% | >2.17 h |  |  |  |  |  |  |  |  |
| Cc1nn2cc(C3CC3)cnc2c1C(=O)NC1(c2ccc(C(F)(F)F)nc2)CCOCC1O (racemic) [Example 51] |  |  |  |  | 0.531 | > 2.17 h |  |  |  |  |  |  |
| Cc1cnc2c(C(=O)NC3(c4ccc(C(F)(F)F)cc4F)CCOC3)cnn2c1 (racemic) [Example 35] | 31 nM | > 10000 nM |  |  | 0.076 |  | 0.063 |  |  |  |  |  |
| Cc1nn2cc(C3CC3)cnc2c1C(=O)NC1(c2ccc(C(F)(F)F)cn2)CCOCC1 [Example 21] | 74 nM | > 10000 nM |  |  | 0.162 | > 2.17 h | 0.128 | 1320 nM | 1.17 | 1210 nM | 106 nM | 0.09 |
| O=C(NC1(c2ccc(C(F)(F)F)cc2F)CCOCC1O)c1cnn2cc(C3CC3)cnc12 (single isomer, unassigned) [Example 82a] | 1.2 nM | > 10000 nM |  |  | 0.213 | > 2.17 h | 0.135 | 1180 nM | 0.36 | 3320 nM | 157 nM | 0.05 |
| Cc1nn2cc(C3CC3)cnc2c1C(=O)NC1(c2ncc(C(F)(F)F)cc2F)CCOCC1 [Example 17] | 39 nM | 6940 nM |  |  | 0.086 | > 2.17 h | 0.093 |  |  |  |  |  |
| CC1(O)COCCC1(NC(=O)c1cnn2cc(C3CC3)cnc12)c1ccc(C(F)(F)F)cc1F (single isomer, unassigned) [Example 86a] |  |  |  |  | 0.105 |  | 0.065 |  |  |  |  |  |
| Cc1cnc2c(C(=O)NC3(c4ccc(C(F)(F)F)cc4F)CCCOC3)cnn2c1 (racemic) [Example 31] | 30 nM | > 10000 nM |  |  | 0.047 |  | 0.024 |  |  |  |  |  |
| Cc1nn2cc(C3CC3)cnc2c1C(=O)NC1(c2ccc(C(F)(F)F)nc2)CCOCC1O (single isomer, unassigned) [Example 88b] |  |  |  |  | 0.558 | > 2.17 h |  |  |  |  |  |  |
| CC1(O)COCCC1(NC(=O)c1cnn2cc(C3CC3)cnc12)c1ccc(C(F)(F)F)cc1F (racemic) [Example 53] |  |  |  |  | 0.183 |  |  |  |  |  |  |  |
| Cc1cnc2c(C(=O)NC3(c4ccc(C(F)(F)F)cc4F)CCOCC3(C)O)cnn2c1 (single isomer, unassigned) [Example 83a] |  |  |  |  | 0.156 | > 2.17 h | 0.178 | 449 nM |  | 794 nM | 61 nM |  |
| O=C(NC1(c2ccc(C(F)(F)F)cc2F)CCOCC1)c1cnn2cc(F)cnc12 [Example 3] | 266 nM | > 10000 nM |  |  | 0.157 | 1.2 h |  |  |  |  |  |  |
| Cc1cnc2c(C(=O)NC3(c4ccc(C(F)(F)F)cc4F)CCOCC3O)cnn2c1 (single isomer, unassigned) [Example 81a] |  | > 10000 nM |  |  | 0.37 | > 2.17 h | 0.257 | 1070 nM |  | 2460 nM | 261 nM |  |
| Cc1cnc2c(C(=O)NC3(c4ccc(C(F)(F)F)cc4F)CCOCC3)cnn2c1 [Example 2] | 22 nM | > 10000 nM |  |  | 0.085 | 2 h | 0.053 |  |  |  |  |  |
| Cc1cnc2c(C(=O)NC3(c4ccc(C(F)(F)F)cc4F)CCOCC3O)cnn2c1 (racemic) [Example 46] |  | > 10000 nM |  |  | 0.329 | > 2.17 h | 0.313 |  |  |  |  |  |
| Cc1nn2cc(C3CC3)cnc2c1C(=O)NC1(c2ccc(C(F)(F)F)nc2)CCOCC1 [Example 25] | 88 nM | 9070 nM |  |  | 0.246 | > 2.17 h | 0.169 | 957 nM | 0.92 | 1040 nM | 111 nM | 0.12 |
| O=C(NC1(c2ccc(C(F)(F)F)cc2F)COCC1O)c1cnn2cc(C3CC3)cnc12 (single isomer, unassigned) [Example 69] | 1740 nM | > 10000 nM | 90.7% | 0.883 h |  |  |  |  |  |  |  |  |
| O=C(NC1(c2ccc(C(F)(F)F)cc2)CCOC1)c1cnn2cc(C3CC3)cnc12 (racemic) [Example 37] | 192 nM | > 10000 nM |  |  | 0.056 | > 2.17 h | 0.065 |  |  |  |  |  |
| Cc1cnc2c(C(=O)NC3(c4ccc(C(F)(F)F)nc4)CCOCC3O)cnn2c1 (single isomer, unassigned) [Example 87a] | 1000 nM | > 10000 nM |  |  |  |  |  |  |  |  |  |  |
| Cc1nn2cc(C3CC3)cnc2c1C(=O)NC1(c2cnc(C(F)(F)F)c(F)c2)CCOCC1 [Example 29] | 661 nM | 5930 nM |  |  |  |  |  |  |  |  |  |  |
| O=C(NC1(c2ccc(Cl)cc2F)CCOC1)c1cnn2cc(C3CC3)cnc12 (racemic) [Example 38] | 331 nM | 6710 nM |  |  |  |  |  |  |  |  |  |  |
| O=C(NC1(c2ccc(C(F)(F)F)cc2F)CCOCC1=O)c1cnn2cc(C3CC3)cnc12 (stereo not shown) [Example 66] | 25 nM | > 10000 nM |  |  |  |  |  |  |  |  |  |  |
